Test results: patent publication US12077503B2, “Substituted cyclic amides and their use as herbicides” (FMC CORPORATION, priority 2015, dated 2024)

What was measured:
Format in all cases: in vivo
[1] = test system: barnyardgrass (Echinochloa crus-galli); assay: Test G Pre-Emergence Protocol; conditions: evaluated after 13 days
Method: (§1) Seeds of corn (Zea mays), giant foxtail (Setaria faberi), barnyardgrass (Echinochloa crus-galli), ivy-leaved morning glory (Ipomoea hederacea), redroot pigweed (Amaranthus retroflexus) and velvetleaf (Abutilon theophrasti) were sown in standard soil in pots. After cultivation for one day under controlled conditions in a glasshouse (at 24/16° C., day/night; 14 hours light; 65% humidity), the plants were sprayed with an aqueous spray solution derived from the formulation of the technical active ingredient in acetone/water (50:50) solution containing 0.5% Tween 20 (polyoxyethylene sorbitan monolaurate, CAS RN 9005-64-5) to give a final dose of 15.625, 62.5 or 250 g/ha of test compound.
(§2) The test plants were then grown on under controlled conditions in a glasshouse (at 24/16° C., day/night; 14 hours light; 65% humidity) and watered twice daily. After 13 days the test was evaluated (100=total damage to plant; 0=no damage to plant). A dash (-) means no test result.

corn (Zea mays) [2] = assay: Test G Pre-Emergence Protocol; conditions: evaluated after 13 days
Method: as §1, §2

[3] = test system: giant foxtail (Setaria faberi); assay: Test G Pre-Emergence Protocol; conditions: evaluated after 13 days
Method: as §1, §2

[4] = test system: ivy-leaved morning glory (Ipomoea hederacea); assay: Test G Pre-Emergence Protocol; conditions: evaluated after 13 days
Method: as §1, §2

[5] = test system: redroot pigweed (Amaranthus retroflexus); assay: Test G Pre-Emergence Protocol; conditions: evaluated after 13 days
Method: as §1, §2

[6] = test system: velvetleaf (Abutilon theophrasti); assay: Test G Pre-Emergence Protocol; conditions: evaluated after 13 days
Method: as §1, §2

[7] = test system: barnyardgrass (Echinochloa crus-galli); assay: Test G Post-Emergence Protocol
Method: as §1, with “8 days” for “one day”
as §2

corn (Zea mays) [8] = assay: Test G Post-Emergence Protocol
Method: as §1, with “8 days” for “one day”
as §2

[9] = test system: giant foxtail (Setaria faberi); assay: Test G Post-Emergence Protocol
Method: as §1, with “8 days” for “one day”
as §2

[10] = test system: ivy-leaved morning glory (Ipomoea hederacea); assay: Test G Post-Emergence Protocol
Method: as §1, with “8 days” for “one day”
as §2

[11] = test system: redroot pigweed (Amaranthus retroflexus); assay: Test G Post-Emergence Protocol
Method: as §1, with “8 days” for “one day”
as §2

[12] = test system: velvetleaf (Abutilon theophrasti); assay: Test G Post-Emergence Protocol
Method: as §1, with “8 days” for “one day”
as §2

[13] = 62.5 g ai/ha, 100=total damage to plant, 0=no damage to plant
[14] = 15.625 g ai/ha, evaluated after 13 days (100=total damage to plant; 0=no damage to plant)
[15] = 62.5 g ai/ha, evaluated after 13 days, 100=total damage to plant, 0=no damage to plant
[16] = 250 g ai/ha, evaluated after 13 days, 100=total damage to plant, 0=no damage to plant

## Cc1cccc(NC(=O)[C@H]2C(=O)N(C)C[C@@H]2c2ccc(C(F)(F)F)cc2)c1S(C)(=O)=O (racemic) [Compound 1677]
[1]; 15.625 g ai/ha
  Barnyardgrass damage rating (100=total damage to plant; 0=no damage to plant): 0
[1]; [13]
  Barnyardgrass damage rating: 0
[1]; 250 g ai/ha
  Barnyardgrass damage rating (100=total damage to plant; 0=no damage to plant): 10
Corn (Zea mays) [2]; 15.625 g ai/ha
  Corn damage rating (100=total damage to plant; 0=no damage to plant): 0
Corn (Zea mays) [2]; [13]
  Corn damage rating: 0
Corn (Zea mays) [2]; 250 g ai/ha
  Corn damage rating (100=total damage to plant; 0=no damage to plant): 0
[3]; 15.625 g ai/ha
  Foxtail, Giant damage rating (100=total damage to plant; 0=no damage to plant): 10
[3]; [13]
  Foxtail, Giant damage rating: 40
[3]; 250 g ai/ha
  Foxtail, Giant damage rating (100=total damage to plant; 0=no damage to plant): 70
[4]; 15.625 g ai/ha
  Morningglory, Ivy-leaved damage rating (100=total damage to plant; 0=no damage to plant): 0
[4]; [13]
  Morningglory, Ivy-leaved damage rating: 0
[4]; 250 g ai/ha
  Morningglory, Ivy-leaved damage rating (100=total damage to plant; 0=no damage to plant): 0
[5]; 15.625 g ai/ha
  Pigweed, Redroot damage rating (100=total damage to plant; 0=no damage to plant): 0
[5]; [13]
  Pigweed, Redroot damage rating: 0
[5]; 250 g ai/ha
  Pigweed, Redroot damage rating (100=total damage to plant; 0=no damage to plant): 0
[6]; 15.625 g ai/ha
  Velvetleaf damage rating (100=total damage to plant; 0=no damage to plant): 0
[6]; [13]
  Velvetleaf damage rating: 0
[6]; 250 g ai/ha
  Velvetleaf damage rating (100=total damage to plant; 0=no damage to plant): 0
[7]; [14]
  Barnyardgrass damage rating: 0
[7]; [15]
  Barnyardgrass damage rating: 10
[7]; [16]
  Barnyardgrass damage rating: 10
Corn (Zea mays) [8]; [14]
  Corn damage rating: 0
Corn (Zea mays) [8]; [15]
  Corn damage rating: 0
Corn (Zea mays) [8]; [16]
  Corn damage rating: 0
[9]; [14]
  Foxtail, Giant damage rating: 10
[9]; [15]
  Foxtail, Giant damage rating: 30
[9]; [16]
  Foxtail, Giant damage rating: 50
[10]; [14]
  Morningglory, Ivy-leaved damage rating: 0
[10]; [15]
  Morningglory, Ivy-leaved damage rating: 0
[10]; [16]
  Morningglory, Ivy-leaved damage rating: 0
[11]; [14]
  Pigweed, Redroot damage rating: 0
[11]; [15]
  Pigweed, Redroot damage rating: 0
[11]; [16]
  Pigweed, Redroot damage rating: 0
[12]; [14]
  Velvetleaf damage rating: 0
[12]; [15]
  Velvetleaf damage rating: 0
[12]; [16]
  Velvetleaf damage rating: 0
